System: colorectal tissue transcripts
Experiment: SAGE of normal, adenoma and cancer colorectal tissue (transcript tag counts)
Design: species or system human
Settings: for AD1 (SAGE tag count): SAGE library AD1; for AD2 (SAGE tag count): SAGE library AD2; for CA1 (SAGE tag count): SAGE library CA1; for CA2 (SAGE tag count): SAGE library CA2; for NC1 (SAGE tag count): SAGE library NC1; for NC2 (SAGE tag count): SAGE library NC2
Summary of the method: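 Tag counts reflect transcript abundance, each mRNA represented by a 15-base tag near its 3′ end. Excluding MHC tags, linkers and duplicate ditags, libraries were compared statistically: two each of normal epithelium, FAP-derived adenomas (>70% neoplastic) and carcinomas.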

## GCAGCTCCTG (chemistry not fully specified)
  AD1 (SAGE tag count): 3
  AD2 (SAGE tag count): 2
  CA1 (SAGE tag count): 7
  CA2 (SAGE tag count): 3
  NC1 (SAGE tag count): 13
  NC2 (SAGE tag count): 47

## GCAGGAGGTG (chemistry not fully specified; the letters are possibly those of the target site)
  AD1 (SAGE tag count): 0
  AD2 (SAGE tag count): 0
  CA1 (SAGE tag count): 0
  CA2 (SAGE tag count): 1
  NC1 (SAGE tag count): 2
  NC2 (SAGE tag count): 13

## GCAGGGCCTC (chemistry not fully specified)
  AD1 (SAGE tag count): 41
  AD2 (SAGE tag count): 69
  CA1 (SAGE tag count): 39
  CA2 (SAGE tag count): 51
  NC1 (SAGE tag count): 128
  NC2 (SAGE tag count): 165

## GCCACATACT (chemistry not fully specified)
  AD1 (SAGE tag count): 0
  AD2 (SAGE tag count): 0
  CA1 (SAGE tag count): 0
  CA2 (SAGE tag count): 0
  NC1 (SAGE tag count): 3
  NC2 (SAGE tag count): 9

## GCCACGTGGA (chemistry not fully specified)
  AD1 (SAGE tag count): 5
  AD2 (SAGE tag count): 2
  CA1 (SAGE tag count): 7
  CA2 (SAGE tag count): 1
  NC1 (SAGE tag count): 19
  NC2 (SAGE tag count): 16

## GCCAGACACC (chemistry not fully specified)
  AD1 (SAGE tag count): 3
  AD2 (SAGE tag count): 4
  CA1 (SAGE tag count): 1
  CA2 (SAGE tag count): 2
  NC1 (SAGE tag count): 19
  NC2 (SAGE tag count): 9

## GCCAGGTTGC (chemistry not fully specified)
  AD1 (SAGE tag count): 1
  AD2 (SAGE tag count): 1
  CA1 (SAGE tag count): 1
  CA2 (SAGE tag count): 1
  NC1 (SAGE tag count): 14
  NC2 (SAGE tag count): 5

## GCCATCCTCC (chemistry not fully specified)
  AD1 (SAGE tag count): 0
  AD2 (SAGE tag count): 1
  CA1 (SAGE tag count): 0
  CA2 (SAGE tag count): 0
  NC1 (SAGE tag count): 9
  NC2 (SAGE tag count): 13

## GCCCACACAG (chemistry not fully specified)
  AD1 (SAGE tag count): 1
  AD2 (SAGE tag count): 1
  CA1 (SAGE tag count): 0
  CA2 (SAGE tag count): 0
  NC1 (SAGE tag count): 15
  NC2 (SAGE tag count): 0

## GCCCACGTCA (chemistry not fully specified)
  AD1 (SAGE tag count): 0
  AD2 (SAGE tag count): 0
  CA1 (SAGE tag count): 0
  CA2 (SAGE tag count): 0
  NC1 (SAGE tag count): 7
  NC2 (SAGE tag count): 8

## GCCCAGGGCC (chemistry not fully specified; the letters are possibly those of the target site)
  AD1 (SAGE tag count): 2
  AD2 (SAGE tag count): 1
  CA1 (SAGE tag count): 2
  CA2 (SAGE tag count): 1
  NC1 (SAGE tag count): 4
  NC2 (SAGE tag count): 44

## GCCCAGGTCA (chemistry not fully specified)
  AD1 (SAGE tag count): 136
  AD2 (SAGE tag count): 128
  CA1 (SAGE tag count): 58
  CA2 (SAGE tag count): 22
  NC1 (SAGE tag count): 519
  NC2 (SAGE tag count): 447

## GCCCAGTGGC (chemistry not fully specified)
  AD1 (SAGE tag count): 8
  AD2 (SAGE tag count): 15
  CA1 (SAGE tag count): 2
  CA2 (SAGE tag count): 5
  NC1 (SAGE tag count): 51
  NC2 (SAGE tag count): 0

## GCCGACCAGG (chemistry not fully specified)
  AD1 (SAGE tag count): 15
  AD2 (SAGE tag count): 8
  CA1 (SAGE tag count): 19
  CA2 (SAGE tag count): 9
  NC1 (SAGE tag count): 46
  NC2 (SAGE tag count): 47

## GCCGGGTGGG (chemistry not fully specified)
  AD1 (SAGE tag count): 18
  AD2 (SAGE tag count): 24
  CA1 (SAGE tag count): 68
  CA2 (SAGE tag count): 67
  NC1 (SAGE tag count): 207
  NC2 (SAGE tag count): 149

## GCCGTGGAGA (chemistry not fully specified)
  AD1 (SAGE tag count): 4
  AD2 (SAGE tag count): 11
  CA1 (SAGE tag count): 7
  CA2 (SAGE tag count): 7
  NC1 (SAGE tag count): 32
  NC2 (SAGE tag count): 23

## GCCTGGCCAT (chemistry not fully specified)
  AD1 (SAGE tag count): 4
  AD2 (SAGE tag count): 6
  CA1 (SAGE tag count): 10
  CA2 (SAGE tag count): 14
  NC1 (SAGE tag count): 26
  NC2 (SAGE tag count): 34

## GCGAAACCCT (chemistry not fully specified)
  AD1 (SAGE tag count): 123
  AD2 (SAGE tag count): 43
  CA1 (SAGE tag count): 64
  CA2 (SAGE tag count): 98
  NC1 (SAGE tag count): 167
  NC2 (SAGE tag count): 565

## GCGAAACTCG (chemistry not fully specified)
  AD1 (SAGE tag count): 1
  AD2 (SAGE tag count): 0
  CA1 (SAGE tag count): 0
  CA2 (SAGE tag count): 0
  NC1 (SAGE tag count): 5
  NC2 (SAGE tag count): 9

## GCGCAGAGGT (chemistry not fully specified)
  AD1 (SAGE tag count): 1
  AD2 (SAGE tag count): 0
  CA1 (SAGE tag count): 0
  CA2 (SAGE tag count): 1
  NC1 (SAGE tag count): 2
  NC2 (SAGE tag count): 16

## GCTCTTCCCC (chemistry not fully specified; the letters are possibly those of the target site)
  AD1 (SAGE tag count): 1
  AD2 (SAGE tag count): 2
  CA1 (SAGE tag count): 2
  CA2 (SAGE tag count): 0
  NC1 (SAGE tag count): 9
  NC2 (SAGE tag count): 21

## GCTGCCCTTG (chemistry not fully specified)
  AD1 (SAGE tag count): 13
  AD2 (SAGE tag count): 6
  CA1 (SAGE tag count): 6
  CA2 (SAGE tag count): 18
  NC1 (SAGE tag count): 44
  NC2 (SAGE tag count): 6

## GCTGGCACAT (chemistry not fully specified)
  AD1 (SAGE tag count): 1
  AD2 (SAGE tag count): 0
  CA1 (SAGE tag count): 6
  CA2 (SAGE tag count): 0
  NC1 (SAGE tag count): 15
  NC2 (SAGE tag count): 14

## GCTGGCCCCG (chemistry not fully specified)
  AD1 (SAGE tag count): 0
  AD2 (SAGE tag count): 0
  CA1 (SAGE tag count): 0
  CA2 (SAGE tag count): 1
  NC1 (SAGE tag count): 5
  NC2 (SAGE tag count): 11

## GCTGTGCCTG (chemistry not fully specified)
  AD1 (SAGE tag count): 2
  AD2 (SAGE tag count): 4
  CA1 (SAGE tag count): 11
  CA2 (SAGE tag count): 8
  NC1 (SAGE tag count): 36
  NC2 (SAGE tag count): 42

## GCTTGGGGAT (chemistry not fully specified)
  AD1 (SAGE tag count): 2
  AD2 (SAGE tag count): 0
  CA1 (SAGE tag count): 0
  CA2 (SAGE tag count): 0
  NC1 (SAGE tag count): 11
  NC2 (SAGE tag count): 8

## GGAACAGGGG (chemistry not fully specified)
  AD1 (SAGE tag count): 1
  AD2 (SAGE tag count): 0
  CA1 (SAGE tag count): 0
  CA2 (SAGE tag count): 2
  NC1 (SAGE tag count): 1
  NC2 (SAGE tag count): 13

## GGAACTGTGA (chemistry not fully specified)
  AD1 (SAGE tag count): 10
  AD2 (SAGE tag count): 18
  CA1 (SAGE tag count): 10
  CA2 (SAGE tag count): 2
  NC1 (SAGE tag count): 90
  NC2 (SAGE tag count): 84

## GGAAGAGCAC (chemistry not fully specified)
  AD1 (SAGE tag count): 1
  AD2 (SAGE tag count): 1
  CA1 (SAGE tag count): 2
  CA2 (SAGE tag count): 5
  NC1 (SAGE tag count): 21
  NC2 (SAGE tag count): 11

Reference: patent publication US8029764B2, “Methods for detection of colorectal cancer” (The Johns Hopkins University, priority 2001, dated 2011)
